Reference: paper PMC9926234, “Iterative computational design and crystallographic screening identifies potent inhibitors targeting the Nsp3 macrodomain of SARS-CoV-2” (Proceedings of the National Academy of Sciences of the …, 2023)
Like-named read-outs stand apart in the source and are kept apart here.

Columns and labels:
Format in all cases: binding
SARS-CoV-2 NSP3 Mac1 [1] = biological target: T1, SARS-CoV-2 NSP3 Mac1 (Severe acute respiratory syndrome coronavirus 2, UniProt P0DTD1); experiment: biochemical; details: for Ki: Ki estimation from HTRF-derived IC50, Cheng-Prusoff, peptide 400nM, Kd 2.68µM
SARS-CoV-2 NSP3 Mac1 [2] = biological target: T1, SARS-CoV-2 NSP3 Mac1; details: for Refined occupancy: ligand occupancy after refinement (phenix.refine)
SARS-CoV-2 NSP3 Mac1 [3] = biological target: T1, SARS-CoV-2 NSP3 Mac1; design: contains a conserved macrodomain enzyme (Mac1); details: for Spearman est (compound concentration vs apparent Tm): DSF dose responsiveness, 1 µM nsp3 mac1, adj p given
Outline: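 ΔTma values are thermal shifts relative to a co-located DMSO-only control, read with 5 µM Fluorescent Yellow dye. Each compound was tested in triplicate over seven concentrations (two-fold steps, top 1,000 or 100 μM). Spearman correlation of concentration versus ΔTma tested whether the shift was dose-responsive.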

[4] = PanDDA 1-BDC value of the event, crystal soak, compound concentration 100 mM, per dataset
[5] = PanDDA event map, 1 minus background density correction, crystal soaking of Mac1
[6] = crystal soak, compound concentration 100 mM, per dataset
[7] = ligand modeled from this dataset, compound concentration 100 mM, Echo dispense volume 40 or 80 nl
[8] = true hit = binding in crystallographic soaking or the HTRF-based binding assay
[9] = HTRF ADPr-peptide displacement from SARS-CoV-2 Mac1, read-out: IC50
[10] = HTRF, several values in a cell are separate determinations, read-out: IC50
[11] = PanDDA 1-BDC (background density correction) of the event, crystal soak 100 mM, PanDDA run dmso_34
[12] = crystal soak, compound concentration 100 mM, PanDDA run dmso_34, series docking_lead-like_1
[13] = ligand modeled in the crystal structure, crystal soak 100 mM, PanDDA run dmso_34
[14] = overall hit flag: binding in crystallographic soaking or the HTRF-based binding assay
[15] = maximal thermal upshift vs DMSO control
[16] = ligand modeled in the crystal structure, crystal soak, compound concentration 100 mM, per dataset

SMILES | 1-BDC (SARS-CoV-2 NSP3 Mac1 [2]; [4]) | 1-BDC (SARS-CoV-2 NSP3 Mac1 [2]; [5]) | PanDDA hit? (SARS-CoV-2 NSP3 Mac1 [2]; [6]) | Modeled? (SARS-CoV-2 NSP3 Mac1 [2]; [7]) | Refined occupancy (SARS-CoV-2 NSP3 Mac1 [2]; crystal soaking of Mac1) | HIT* (SARS-CoV-2 NSP3 Mac1 [2]; [8]) | Spearman est (compound concentration vs apparent Tm) (SARS-CoV-2 NSP3 Mac1 [3]) | DSF max dTma (SARS-CoV-2 NSP3 Mac1 [3]; maximal thermal upshift) | IC50 (SARS-CoV-2 NSP3 Mac1 [1]; [9]) | IC50 (SARS-CoV-2 NSP3 Mac1 [1]; [10]) | Ki (SARS-CoV-2 NSP3 Mac1 [1]; read-out: Ki***) | HIT* (SARS-CoV-2 NSP3 Mac1 [2]; [14]) | DSF max dTma (SARS-CoV-2 NSP3 Mac1 [3]; [15]) | other results
O=C(Nc1ccc(C(=O)NCc2c(C(=O)O)[nH]c3ccccc23)cc1)NC1CC1 [Z8539_0027] | 0.29 | 0.23 | TRUE | TRUE | 46 | Y | 0.7 | 6.22 ˚C |  |  |  |  |  | IC50 (SARS-CoV-2 NSP3 Mac1 [1]; IC50, HTRF ADPr-peptide displacement from SARS-CoV-2 Mac1): 7.6 µM; Ki (SARS-CoV-2 NSP3 Mac1 [1]; Ki***): 6.6 µM
O=c1[nH]nc(C2CCCN(c3ncnc4[nH]ccc34)C2)o1 (stereo not drawn) [Z7655] |  | 0.09 |  |  | 18 |  | 0.22 |  | 279 µM | 279 µM | 243 µM | Y | 0.6 °C | 1-BDC (SARS-CoV-2 NSP3 Mac1 [2]; [11]): 0.09; PanDDA hit? (SARS-CoV-2 NSP3 Mac1 [2]; [12]): TRUE; Modeled? (SARS-CoV-2 NSP3 Mac1 [2]; [13]): TRUE
O=C(NC1c2cccc(O)c2CC1C(=O)O)c1ccc(Nn2ccnc2)cc1 (stereo not drawn) [Z8539_0011] | 0.25 | 0.35 | TRUE | TRUE | 70 | Y | 0.18 | 1.23 ˚C | 19 µM |  | 16.5 µM |  |  | 
NC(=O)Nc1ccc(C(=O)NC2c3cccc(O)c3CC2C(=O)O)cc1 (stereo not drawn) [Z8539_0041] | 0.24 | 0.24 | TRUE |  | 48 | Y | 0.6 | 6 ˚C |  |  | 1.1 µM |  |  | binding to Mac1 in the HTRF assay, result in words (SARS-CoV-2 NSP3 Mac1 [1]): did not substantially change binding affinity; IC50 (SARS-CoV-2 NSP3 Mac1 [1]; HTRF, read-out: IC50): 1.3 µM; Modeled? (SARS-CoV-2 NSP3 Mac1 [2]; [16]): TRUE
O=C(NC1c2cccc(O)c2CC1C(=O)O)c1ccc(NCC2CC2)nc1 (stereo not drawn) [8539_0009] | 0.18 | 0.24 | TRUE | TRUE | 70 | Y | 0.34 | 2.03 ˚C |  |  | 14.9 µM |  |  | 
CCc1c[nH]c2ncnc(N3CCCC(S(C)(=O)=O)C3)c12 (stereo not drawn) [Z1027] |  | 0.17 |  |  | 34 |  | 0.96 |  | 126 µM | 126 µM | 110 µM | Y | 1.03 °C | 1-BDC (SARS-CoV-2 NSP3 Mac1 [2]; [11]): 0.17; PanDDA hit? (SARS-CoV-2 NSP3 Mac1 [2]; [12]): TRUE; Modeled? (SARS-CoV-2 NSP3 Mac1 [2]; [13]): TRUE
CCc1c[nH]c2ncnc(N3CCC[C@H](C(N)=O)C3)c12 [Z3271] |  |  |  |  |  |  | 0.97 |  | 204 µM | 204 µM | 177 µM | Y | 1.77 °C | binding to Mac1 in crystal soaking, result in words (SARS-CoV-2 NSP3 Mac1 [2]; soaks at 10 to 20 mM): not confirmed by X-ray crystallography
O=C(Nc1ccc(C(=O)N[C@H]2c3ccccc3CC[C@H]2C(=O)O)cc1)NC1CC1 [8539_0030] | 0.32 | 0.32 | TRUE |  | 64 | Y | 0.86 | 4.92 ˚C |  |  | 5.1 µM |  |  | Modeled? (SARS-CoV-2 NSP3 Mac1 [2]; [16]): TRUE
